# Experimental data from patent US10351598B2, “Peptide with anti-obesity and anti-diabetic efficacy and use thereof” (CAREGEN CO., LTD., priority 2016, dated 2019).
# Values joined by “and” are separate entries in the source; they are usually repeats but may differ in a detail not shown here. Equal values may be shown once.
# Legend:
# [1] = test system: 3T3-L1 cells; test: Oil red O staining (lipid accumulation inhibition); format: cell-based; details: day 9 of differentiation induction
# Description: In order to measure the lipid accumulation inhibitory effect by the peptides of the present invention, 3T3-L1 cells were seeded in 24-well plate at 2×10^4 cells/well, followed by culture, and then the medium was exchanged with a differentiation medium containing 10 ug/ml insulin, 0.1 uM dexamethasone, and 0.5 uM IBMX, followed by treatment with the peptides having different concentrations.
# Thereafter, the medium was exchanged into a medium containing 10 ug/ml insulin every two days, and on day 9 of differentiation induction, an oil-red-red O staining assay was conducted.
# The cells were washed with PBS, immobilized by the treatment with 4% para-form aldehyde for 10 minutes, washed with distilled water, and then cultured in 60% isopropanol for 5-10 minutes. The immobilized cells were stained with an oil red solution [1% Oil Red in isopropanol was diluted in dH2O in ratio of 6:4 (vol/vol)] for 30 minutes, and then again washed with PBS. The stained cells were observed by an optical microscope, followed by washing with distilled water, and 1 ml of 100% isopropanol was added thereto, followed by stirring at 4° C. The next day, quantification was conducted at 510 nm.
# [2] = test system: mouse adipose tissue; test: Glycerol assay (lipolysis induction); format: cell-based; details: compared with control group NC; for secretion of glycerol: mouse adipose tissue, cultured 48-72 hours with peptide
# Excerpt: Adipocytes store extra energy in the form of triglycerides in lipid droplets, and when energy is needed, the triglycerides are broken down into fatty acids and glycerols by enzymes, such as adipose triglyceride lipase, HSL, and monoglyceride lipase, to produce energy, or the triglycerides are used in cell signaling or lipid synthesis. The measurement of free glycerol release is for evaluating the lytic effect of the glycerides accumulated in fact cells.
# In order to measure the lipolytic effect by the peptides of the present invention, the mouse adipose tissue was taken and cultured in 100-mm dish (DMEM) for one day. Thereafter, the adipose tissue was cut into equal weight, transferred onto 24-well plate, treated with the peptides, and cultured for 48-72 hours. Each 100 ul of the medium was collected according to the treatment period, and subjected to glycerol assay.
# [3] = test system: CGI-58; test: CGI-58 RT-PCR; format: cell-based; details: intracellular
# Description: (§1) Total RNA was extracted using Qiagen RNeasy kit. For synthesis of single-stranded DNA from RNA, […] of RNA, […] of random hexamer, and DEPC-treated water were added, followed by reaction for 5 minutes at 65° C. 5× first strand buffer, 0.1 M DTT, 10 mM of dNTP, and reverse transcriptase were added to reach a total volume of […], followed by reaction at 42° C. for 1 hour. After heating at 95° C. for 5 minutes again, 10 ml of distilled water was added to make a final volume, […], of cDNA.
# (§2) PCR was conducted by mixing 3 ml of cDNA, 10 pmole of CGI 58 gene-specific primer, 10× Tag buffer, 10 mM dNTP, and i-Tag DNA synthetase. PCR conditions were: 94° C. for 30 seconds, 55-56° C. for 30 seconds, and 72° C. for 30 seconds. Cycle number genes were analyzed in the conditions in which the PCR results could be exponentially amplified. 5 ml of PCR product was obtained, electrophoresed on 1% agarose gel, and stained with ethidium bromide.
# [4] = test system: pHSL; test: Immunohistochemical staining with anti-pHSL antibody (lipolysis induction); format: cell-based; details: mouse adipose tissue, 48-72 hours
# Excerpt: In order to investigate a mechanism by which the peptides of the present invention stimulate the lysis of triglycerides to suppress the lipid accumulation in adipocytes, the effect of the peptides of the present invention on HSL gene expression was examined. HSL enzyme is known as a lipolytic enzyme that breaks down triglycerides into free fatty acids and glycerols when the HSL enzyme breaks down lipids in the adipose tissue.
# The mouse adipose tissue was taken and cultured in 100-mm dish (DMEM) for one day. Thereafter, the adipose tissue was cut into equal weight, transferred onto 24-well plate, treated with the peptides, and cultured for 48-72 hours. Each tissue slice was subjected to immunohistochemical staining using anti-pHSL antibody, and photographed by a fluorescent microscope.
# [5] = test system: C57BL/6J mice fed with a high-fat diet; test: Anti-diabetic efficacy evaluation (in vivo), blood glucose after oral glucose; parameters: blood glucose, individual animal / blood glucose, Mean: unit not given here; details: for blood glucose, Mean / blood glucose, individual animal: 60% fat diet mice; for blood glucose increase by glucose: high-fat diet mice, compared with the NC group
# Excerpt: 6-week-old C57BL/6J mice as experimental animals were purchased from Central Lab. Animal Inc. (Seoul, Korea), and then were used for experiments after acclimatization with a normal diet for 1 week. A high-fat feed was used from Research Diets, inc. (#product D12492).
# The experimental animals were divided into a total of four groups, and three mice for each group were raised for 12 weeks.
# In addition, the experimental animals were divided into a total of […], and three mice for each group were raised for 12 weeks.
# After the pre-treatment with a peptide for 30 minutes, glucose (60 mg/300 ul distilled water) were orally administered, and then the blood glucose lowering effect over time was examined. The results are shown in FIGS. 6a to 6b and tables 5 and 6.
# [6] = test system: adiponectin; test: Adiponectin RT-PCR in insulin resistance conditions (TNF-α); format: cell-based; details: reduced by TNF-α treatment, peptide treatment 16 hours
# Description: as §1, §2
# (§3) After the insulin resistance conditions were configured by TNF-α treatment, the peptide treatment was conducted for 16 hours, followed by collection and then the resultant product was collected and the changes of respective factors were examined by RT-PCR. RT-PCR conditions are the same as in example 3.
# [7] = test system: GLUT4; test: GLUT4 RT-PCR in insulin resistance conditions (TNF-α); format: cell-based; details: reduced by TNF-α treatment, peptide treatment 16 hours
# Description: as §1, §2, §3
# [8] = test system: AMPK-α1; test: AMPK-α1 RT-PCR in insulin resistance conditions (TNF-α); format: cell-based; details: reduced by TNF-α treatment, peptide treatment 16 hours
# Description: as §1, §2, §3
# [9] = test system: mouse adipose tissue; test: Histological analysis, H&E staining (lipolysis induction); format: cell-based; details: as the concentration of the peptide increased
# Description: The mouse adipose tissue was taken and cultured in 100-mm dish (DMEM) for one day. Thereafter, the adipose tissue was cut into equal weight, transferred onto 24-well plate, treated with the peptides, and cultured for 48-72 hours. Each tissue slice was subjected to H&E staining. The photo files obtained from microscopic photographing were divided into compartments through Image J, and analyzed using a program that can compare the sizes of each compartment. Through this, the area of the total number of cells can be obtained, and the average area obtained by dividing the area by the total number of cells can also be obtained. The results may be expressed differently depending on the degree of staining. However, correction can be made by adjusting the threshold value in the beginning, and the results were obtained after the cells with relatively small areas from the comparison with the original file were removed.
# [10] = test system: IRS-1; test: IRS-1 RT-PCR in insulin resistance conditions (TNF-α); format: cell-based; details: reduced by TNF-α treatment, peptide treatment 16 hours
# Description: as §1, §2, §3
# [11] = 0 min, IP 2 mg/ml 300 ul, Table 6
# [12] = 0 min, oral 2 mg/ml 300 ul, Table 6
# [13] = 10 min, IP 2 mg/ml 300 ul, Table 6
# [14] = 10 min, oral 2 mg/ml 300 ul, Table 6
# [15] = 40 min, IP 2 mg/ml 300 ul, Table 6
# [16] = 40 min, oral 2 mg/ml 300 ul, Table 6
# [17] = 80 min, IP 2 mg/ml 300 ul, Table 6
# [18] = 80 min, oral 2 mg/ml 300 ul, Table 6
# [19] = 140 min, IP 2 mg/ml 300 ul, Table 6
# [20] = 140 min, oral 2 mg/ml 300 ul, Table 6
# [21] = 200 min, IP 2 mg/ml 300 ul, Table 6
# [22] = 200 min, oral 2 mg/ml 300 ul, Table 6
# [23] = 0 min, oral 2 mg/ml 300 ul, Table 5
# [24] = 30 min, oral 2 mg/ml 300 ul, Table 5
# [25] = 60 min, oral 2 mg/ml 300 ul, Table 5
# [26] = 90 min, oral 2 mg/ml 300 ul, Table 5
# [27] = 120 min, oral 2 mg/ml 300 ul, Table 5
substance,measurement,setting,value
His-Glu-Thr-Phe-Glu (HETFE) [SEQ ID NO: 2],degree of lipid accumulation in the cells,[1],reduced
same,increase of secretion of glycerol,[2]; high-concentration peptide treatment,22%
same,secretion of glycerol,[2],increased
same,expression of the lipolysis factor CGI-58,[3],increased
same,expression of hormone sensitive lipase (pHSL),[4],increased
same,"blood glucose, Mean",[5]; [11],155.00
same,"blood glucose, individual animal",[5]; [11],145.00 and 165.00
same,"blood glucose, Mean",[5]; [12],162
same,"blood glucose, individual animal",[5]; [12],159.00 and 165.00
same,"blood glucose, Mean",[5]; [13],197.00
same,"blood glucose, individual animal",[5]; [13],203.00 and 190.00
same,"blood glucose, Mean",[5]; [14],191
same,"blood glucose, individual animal",[5]; [14],188.00 and 193.00
same,"blood glucose, Mean",[5]; [15],179.00
same,"blood glucose, individual animal",[5]; [15],162.00 and 195.00
same,"blood glucose, Mean",[5]; [16],161
same,"blood glucose, individual animal",[5]; [16],164.00 and 157.00
same,"blood glucose, Mean",[5]; [17],164.00
same,"blood glucose, individual animal",[5]; [17],170.00 and 158.00
same,"blood glucose, Mean",[5]; [18],155
same,"blood glucose, individual animal",[5]; [18],163.00 and 147.00
same,"blood glucose, Mean",[5]; [19],123.00
same,"blood glucose, individual animal",[5]; [19],130.00 and 115.00
same,"blood glucose, Mean",[5]; [20],129
same,"blood glucose, individual animal",[5]; [20],122.00 and 135.00
same,"blood glucose, Mean",[5]; [21],112.00
same,"blood glucose, individual animal",[5]; [21],129.00 and 94.00
same,"blood glucose, Mean",[5]; [22],122
same,"blood glucose, individual animal",[5]; [22],118.00 and 126.00
same,blood glucose increase by glucose,[5],reduced
same,expression of adiponectin,[6],again increased
same,expression of the glucose transporter GLUT4,[7],again increased
same,expression of AMPK-α1,[8],again increased
Lys-Glu-Arg-Lys-Ser (KERKS) [SEQ ID NO: 1],degree of lipid accumulation in the cells,[1],reduced
same,secretion of glycerol,[2],increased
same,expression of the lipolysis factor CGI-58,[3],increased
same,lipid area,[9],reduced
same,number of adipocytes,[9],increased
same,expression of hormone sensitive lipase (pHSL),[4],increased
same,"blood glucose, Mean",[5]; [23],134.67
same,"blood glucose, individual animal",[5]; [23],145.00 and 165.00
same,"blood glucose, Mean",[5]; [24],163.67
same,"blood glucose, individual animal",[5]; [24],203.00 and 190.00
same,"blood glucose, Mean",[5]; [25],142.00
same,"blood glucose, individual animal",[5]; [25],162.00 and 195.00
same,"blood glucose, Mean",[5]; [26],142.67
same,"blood glucose, individual animal",[5]; [26],170.00 and 158.00
same,"blood glucose, Mean",[5]; [27],125.67
same,"blood glucose, individual animal",[5]; [27],130.00 and 115.00
same,blood glucose increase by glucose,[5],reduced
same,expression of adiponectin,[6],again increased
same,expression of the glucose transporter GLUT4,[7],again increased
same,expression of the insulin receptor signaling protein IRS-1,[10],again increased
same,expression of AMPK-α1,[8],again increased
